Measurements as given in PubChem BioAssay (NCI).
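Compound exposure: 48 hours, 5 concentrations, 96-well plates. GI50 marks 50% less growth. Definition used: TGI = concentration required for complete inhibition of growth.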

What was measured:
Assay in all cases: DTP human tumour cell line panel, 48 h
[1] = test system: NCI-H522 lung
[2] = test system: PC-3 prostate
[3] = test system: SR leukemia
[4] = test system: ACHN renal
[5] = test system: NCI/ADR-RES ovarian
[6] = test system: MDA-MB-435
[7] = test system: A549 NSCLC
[8] = test system: SNB-19 CNS
[9] = test system: HS 578T breast
[10] = test system: T-47D breast
[11] = test system: LOX IMVI melanoma
[12] = test system: SNB-75 CNS
[13] = test system: SW-620 colon
[14] = test system: RXF 393 renal
[15] = test system: BT-549 breast
[16] = test system: NCI-H460 lung
[17] = test system: NCI-H23 lung
[18] = test system: SK-MEL-5 melanoma
[19] = test system: SF-539 CNS

Structure (SMILES)	TGI [1] [µM]	TGI [2] [µM]	TGI [3] [µM]	TGI [4] [µM]	TGI [5] [µM]	TGI [6] [µM]	TGI [7] [µM]	TGI [8] [µM]	TGI [9] [µM]	TGI [10] [µM]	TGI [11] [µM]	TGI [12] [µM]	TGI [13] [µM]	TGI [14] [µM]	TGI [15] [µM]	TGI [16] [µM]	TGI [17] [µM]	TGI [18] [µM]	TGI [19] [µM]	GI50 [17] [µM]
CCSc1c(C)c2c(n(Cc3ccc(OC)cc3)c1=O)Cc1ccccc1C2	40.1	84.3	21.3	84.2	74.5	> 100	> 100	> 100	> 100	> 100	76.2	> 100	84	> 100	93.4	27.7	> 100	77.4	80.1	
Nc1ccc(-c2ncc3cc(-c4cccc(-c5cc6cnc(-c7ccc(N)cc7)nc6c6ccccc56)c4)c4ccccc4c3n2)cc1	> 100	> 100	> 100	> 100	> 100	> 100	> 100	> 100	> 100	> 100	> 100	> 100	> 100	> 100	> 100	> 100	> 100	> 100	> 100	
COC(=O)C1=C(OC(=O)/C(=C/c2ccc(Cl)cc2Cl)c2ccc(Cl)cc2Cl)C(C(=O)OC)[C@@]2(O)[C@@H](C(=O)OC)[C@H](C)C[C@@H]1[C@@H]2C(=O)OC (some centres not stated)	> 100	> 100	> 100	> 100	> 100	> 100	> 100	> 100	> 100	> 100	> 100	> 100	> 100	> 100	> 100	> 100	> 100	> 100	> 100	
NC(=O)C(c1ccccc1)N1OC2C(=O)N(Cc3ccccc3)C(=O)C2C1c1cccc(Oc2ccc(Cl)cc2)c1 (configuration not stated)	> 100	> 100	54.1	39.9	> 100	> 100	> 100	> 100	> 100	> 100	34.2	> 100	> 100	53	> 100	90.1	> 100	30.4	47.2	
CO[C@H]1[C@@H](O)[C@@H](C)O[C@@H](O[C@H]2CC[C@@]3(C)[C@H](CC[C@@H]4[C@@H]3CC[C@]3(C)[C@@H](C5=CC(=O)OC5)CC[C@]43O)C2)[C@@H]1O	0.0194	0.0171	0.483	0.0102	0.0276	0.0693	0.00487	0.211	0.031	0.222	0.0455	0.0271	2.51	0.00617	0.0236	0.00625	0.00675	0.0342	0.0247	< 0.0025
CC(C)(N)CO[C@H]1C[C@H]2CC[C@@]1(C)C2(C)C	37.1	> 100	81.1	95	> 100	30.5	> 100	68.5	79	35.9	35.1	39.3	54.4	28.2	60.5	36.3	66	32.8	41	
O=C(O)c1nc2cc(C(F)(F)F)ccc2nc1Nc1ccc(Cl)c(Cl)c1	31.4	16.1	96.3	36	23.2	18.6	21.8	53.5	37.8	36.8	31.2	53.3	22.7	37.5	27.5	26.3	31.7	52.6	23.7	
C[n+]1noc(/N=N\[O-])c1-c1cc(-c2c(/N=N\[O-])on[n+]2C)cc(-c2c(/N=N/[O-])on[n+]2C)c1	> 100	> 100	> 100	> 100	> 100	> 100	> 100	> 100	> 100	> 100	> 100	> 100	> 100	> 100	> 100	> 100	> 100	> 100	> 100	
CN(C)CCNc1ccc2ncnc3c2c1C(=O)c1ccccc1-3	0.982	7.21	0.915	8.77	5.28	6.21	1.73	29.8	15.1	24.7	10.5	6.96	3.81	2.32	21	5.01	3.4	4.99	17	
